Key:
dopamine receptor = molecular target: T1, dopamine receptor (Rattus norvegicus, UniProt P61169); experiment: Test of bonding to the dopamine receptor in vitro (3H spiroperidol); format: binding; settings: rat striated bodies membranes, 0.15 nM 3H spiroperidol, pH 7.25 Krebs Tris buffer; read-out: IC50, displacement of 3H spiroperidol from dopamine receptor
T1 construct: prepared from the striated bodies of rats were used; from tissue; host or cells: rat striatum membranes
Experimental: (optionally for about 30 days) and prepared from the striated bodies of rats were used. The samples were suspended in pH 7.25 Krebs Tris buffer. […] The product was first tested at 5×10^-6 M, in triplicate. […] Incubation took place at 27° C. for 20 minutes, followed by returning to the water bath at 0° C. for 5 minutes, then vacuum filtering, rinsing with pH 7.7 Tris buffer, and the radioactivity was counted in the presence of a Triton scintillator.

kappa opiate receptor [1] = molecular target: T2, kappa opiate receptor (Cavia porcellus, UniProt P41144); experiment: Test for distinction between agonist and antagonist on the kappa opiate receptor (3H diprenorphine, with or without NaCl and GTP); format: binding, guinea pig; settings: for IC50: guinea pig cerebellum membranes, 0.3 nM 3H diprenorphine
T2 construct: Membrane samples prepared from the cerebellum of guinea pigs; from tissue; host or cells: guinea pig cerebellum membranes

male rats = experiment: Antagonist effect vis-a-vis the diuretic activity of U-50488, action on diuresis; format: in vivo, rat; settings: male rats fasted 16 h; product of Example 1 20 mg/kg SC, U-50488 5 mg/kg, combination 5 + 20 mg/kg; urine collected for one hour
kappa opiate receptor [2] = molecular target: T2, kappa opiate receptor; experiment: Test of the bonding to the kappa opiate receptor in vitro (3H ethylketocyclazocine); format: binding, guinea pig
Experimental: a) Test of the bonding to the kappa opiate receptor in vitro
Membrane samples prepared from the cerebellum of guinea pigs preserved at -30° C. (optionally for about 30 days) were used.
These samples were suspended in pH 7.7 Tris buffer. Fractions of 2 ml were allocated into hemolysis tubes and 1 nM of 3H ethylketocyclazocine and the product to be studied were added. The product was first tested in triplicate at 5×10^-6 M. When the tested product displaced more than 50% of the radioactivity bonded specifically to the receptor, it was tested again according to a range of 7 doses to determine the dose which inhibited 50% of the radioactivity bonded specifically to the receptor. Thus, the 50% inhibiting concentration was determined.
The non-specific bonding was determined by the addition of product known under the name U-50 488 H (Lahti et al. 1982, Life Sci. Vol. 31, p. 2257) at 10^-5 M in triplicate. Incubation took place at 25° C. for 40 minutes, followed by returning to the water bath at 0° C. for 5 minutes, then vacuum filtering, rinsing with pH 7.7 Tris buffer, and the radioactivity was counted in the presence of a Triton scintillator. The result was expressed directly as the 50% inhibiting concentration (IC50), that is to say as the concentration of studied product, expressed in nM, necessary to displace 50% of the radioactivity specifically bonded to the studied receptor.

mu opiate receptor = molecular target: T3, mu opiate receptor (Rattus norvegicus, UniProt P33535); experiment: Test of bonding to the mu opiate receptor in vitro (3H DAGO); format: binding; settings: rat brain membranes, 1 nM 3H DAGO, 25° C. 40 minutes, pH 7.7 Tris buffer; read-out: IC50, displacement of 3H DAGO from mu opiate receptor
T3 construct: from the brains of rats were used; from tissue; host or cells: rat brain membranes

female mice = experiment: Antagonist effect vis-a-vis the analgesic activity of U-50488, hot plate test with mice; format: in vivo, mouse; settings: hot plate 56° C., product of Example 1 20 mg/kg SC, U-50488 5 mg/kg SC, combination 5 + 20

T2 sequence (P41144 whole entry): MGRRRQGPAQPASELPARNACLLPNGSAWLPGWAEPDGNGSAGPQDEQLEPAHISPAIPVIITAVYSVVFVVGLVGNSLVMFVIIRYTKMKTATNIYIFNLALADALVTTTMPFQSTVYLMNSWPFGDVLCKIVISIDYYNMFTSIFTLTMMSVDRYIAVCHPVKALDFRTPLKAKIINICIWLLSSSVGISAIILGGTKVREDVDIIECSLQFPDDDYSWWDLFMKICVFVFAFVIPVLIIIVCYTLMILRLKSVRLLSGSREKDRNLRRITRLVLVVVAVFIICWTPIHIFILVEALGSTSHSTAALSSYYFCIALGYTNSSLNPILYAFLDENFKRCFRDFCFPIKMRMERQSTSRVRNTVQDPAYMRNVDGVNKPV
T1 sequence (P61169 whole entry): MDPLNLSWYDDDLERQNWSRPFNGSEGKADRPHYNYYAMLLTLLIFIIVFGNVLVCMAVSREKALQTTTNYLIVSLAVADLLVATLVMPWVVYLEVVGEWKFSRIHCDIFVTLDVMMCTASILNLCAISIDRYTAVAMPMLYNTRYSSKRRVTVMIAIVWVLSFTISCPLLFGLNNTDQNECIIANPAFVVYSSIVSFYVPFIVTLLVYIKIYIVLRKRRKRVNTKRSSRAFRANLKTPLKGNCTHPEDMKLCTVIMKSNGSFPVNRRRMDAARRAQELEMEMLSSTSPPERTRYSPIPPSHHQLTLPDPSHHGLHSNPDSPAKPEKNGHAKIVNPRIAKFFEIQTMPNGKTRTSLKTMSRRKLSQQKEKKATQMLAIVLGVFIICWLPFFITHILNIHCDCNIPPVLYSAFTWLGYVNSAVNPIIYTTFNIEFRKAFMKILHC
T3 sequence (P33535 whole entry): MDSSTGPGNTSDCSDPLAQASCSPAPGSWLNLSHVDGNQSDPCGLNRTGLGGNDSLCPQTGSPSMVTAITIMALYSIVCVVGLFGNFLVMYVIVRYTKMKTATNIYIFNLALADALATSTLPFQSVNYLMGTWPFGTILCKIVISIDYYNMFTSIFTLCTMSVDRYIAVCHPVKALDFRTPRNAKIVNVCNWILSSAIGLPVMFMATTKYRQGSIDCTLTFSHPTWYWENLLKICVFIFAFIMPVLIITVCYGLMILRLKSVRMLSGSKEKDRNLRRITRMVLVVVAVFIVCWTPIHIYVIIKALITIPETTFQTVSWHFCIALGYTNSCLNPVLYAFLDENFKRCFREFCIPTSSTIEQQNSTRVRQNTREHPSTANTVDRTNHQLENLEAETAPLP

CCCCCN(CCc1ccccc1)CCc1cccc(O)c1 [Product of example 1, N-pentyl-N-phenethyl-3-hydroxyphenethylamine]
IC50 (dopamine receptor): 10600 nM | Agonist or antagonist character on the kappa receptor (kappa opiate receptor [1]; conclusion from IC50 with and without NaCl/GTP): antagonist product of the kappa receptor | IC50 (kappa opiate receptor [1]; NaCl 100 mM, GTP 50 uM, read-out: IC50 in the presence of GTP and NaCl): 135 nM | IC50 (kappa opiate receptor [1]; without NaCl and GTP, read-out: IC50 in the absence of GTP and NaCl): 43 nM | Volume of urine excreted in 1 hour, m ± esm (male rats): 0.0067 ± 0.0002 L/kg | Affinity for kappa, mu and dopamine receptors (conclusion) (kappa opiate receptor [2]; conclusion from the kappa, mu and dopamine bonding tests): only has an affinity for the kappa opiate receptor | IC50 (kappa opiate receptor [2]; guinea pig cerebellum membranes, 1 nM 3H ethylketocyclazocine, 25° C. 40 minutes, pH 7.7 Tris buffer, read-out: IC50, displacement of 3H ethylketocyclazocine from kappa opiate receptor): 57 nM | IC50 (mu opiate receptor): 840 nM | Reaction time, m ± esm, 30 mn (female mice; 30 minutes after injection): 4.7 ± 0.6 s | Reaction time, m ± esm, 0 mn (female mice; initial time (0 mn)): 5.1 ± 0.1 s
